Activity calls are given as the source filed them.
Key:
[1] = biological target: Neuropeptide Y receptor type 2 (Homo sapiens, UniProt P49146); test: Fluorescence-based cell-based high-throughput dose response assay for agonists of NPY-Y2. [Related pubchem assays: 1703 (Screening assay (CNGC inhibitors).), 1359 (Screening assay (NPY-Y2 potentiators or agonists).), 1304 (Screening assay (NPY-Y1 potentiators or agonists).), 1710 (Screening assay (NPY-Y2 agonists).), 1791 (Summary AID.)]; type: functional
Chain of Neuropeptide Y receptor type 2 (P49146 whole entry): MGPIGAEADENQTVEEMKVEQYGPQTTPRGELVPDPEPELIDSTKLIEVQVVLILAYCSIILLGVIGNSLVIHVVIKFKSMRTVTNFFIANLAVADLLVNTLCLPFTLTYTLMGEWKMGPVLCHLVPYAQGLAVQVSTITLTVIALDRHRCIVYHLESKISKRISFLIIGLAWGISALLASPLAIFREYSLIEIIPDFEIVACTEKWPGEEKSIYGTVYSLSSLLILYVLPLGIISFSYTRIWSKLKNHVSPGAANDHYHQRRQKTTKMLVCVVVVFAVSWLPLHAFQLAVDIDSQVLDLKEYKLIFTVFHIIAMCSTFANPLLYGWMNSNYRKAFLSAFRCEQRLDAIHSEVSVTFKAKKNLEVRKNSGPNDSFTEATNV

[2] = biological target: Neuropeptide Y receptor type 1 (Homo sapiens, UniProt P25929); test: Fluorescence-based counterscreen for agonists of NPY-Y2: cell-based high-throughput dose response assay for agonists of NPY-Y1.; type: functional
Chain of Neuropeptide Y receptor type 1 (P25929 whole entry): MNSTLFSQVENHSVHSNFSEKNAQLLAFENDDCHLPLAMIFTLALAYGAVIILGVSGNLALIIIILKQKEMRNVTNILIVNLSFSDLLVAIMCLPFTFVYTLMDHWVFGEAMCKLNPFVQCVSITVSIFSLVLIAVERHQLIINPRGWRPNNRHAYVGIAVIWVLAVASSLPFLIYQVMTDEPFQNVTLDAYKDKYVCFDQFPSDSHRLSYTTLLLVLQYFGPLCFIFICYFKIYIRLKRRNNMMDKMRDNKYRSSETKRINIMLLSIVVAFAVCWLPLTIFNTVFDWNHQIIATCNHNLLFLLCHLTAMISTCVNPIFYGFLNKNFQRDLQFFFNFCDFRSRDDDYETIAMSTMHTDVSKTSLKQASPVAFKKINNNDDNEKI

[3] = test system: HEK293; test: Fluorescence-based counterscreen for potentiators or agonists of NPY-Y2: cell-based high-throughput dose response assay to identify inhibitors of cyclic nucleotide gated ion channel (CNGC) activity. In this assay, the parental HEK293 cell line transfected with a cyclic-nucleotide gated ion channel (CNGC)-based cAMP sensor is used to measure inhibition of isoproterenol-induced CNGC activity by test compound.; type: functional; settings: Homo sapiens;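 note: stimulus is 1 µM isoproterenol at EC100 plus PDE inhibitor Ro 20-1724 at 25 µM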
[4] = biological target: Signal transducer and activator of transcription 3 (Homo sapiens, UniProt P40763); test: STAT3 activation with BCL3 mRNA and toxicity – cell-based, […], BCL3 qPCR, cytotoxicity, late-stage follow-up, panel member STAT3 Activation (AID 2049)
Chain of Signal transducer and activator of transcription 3 (P40763 whole entry): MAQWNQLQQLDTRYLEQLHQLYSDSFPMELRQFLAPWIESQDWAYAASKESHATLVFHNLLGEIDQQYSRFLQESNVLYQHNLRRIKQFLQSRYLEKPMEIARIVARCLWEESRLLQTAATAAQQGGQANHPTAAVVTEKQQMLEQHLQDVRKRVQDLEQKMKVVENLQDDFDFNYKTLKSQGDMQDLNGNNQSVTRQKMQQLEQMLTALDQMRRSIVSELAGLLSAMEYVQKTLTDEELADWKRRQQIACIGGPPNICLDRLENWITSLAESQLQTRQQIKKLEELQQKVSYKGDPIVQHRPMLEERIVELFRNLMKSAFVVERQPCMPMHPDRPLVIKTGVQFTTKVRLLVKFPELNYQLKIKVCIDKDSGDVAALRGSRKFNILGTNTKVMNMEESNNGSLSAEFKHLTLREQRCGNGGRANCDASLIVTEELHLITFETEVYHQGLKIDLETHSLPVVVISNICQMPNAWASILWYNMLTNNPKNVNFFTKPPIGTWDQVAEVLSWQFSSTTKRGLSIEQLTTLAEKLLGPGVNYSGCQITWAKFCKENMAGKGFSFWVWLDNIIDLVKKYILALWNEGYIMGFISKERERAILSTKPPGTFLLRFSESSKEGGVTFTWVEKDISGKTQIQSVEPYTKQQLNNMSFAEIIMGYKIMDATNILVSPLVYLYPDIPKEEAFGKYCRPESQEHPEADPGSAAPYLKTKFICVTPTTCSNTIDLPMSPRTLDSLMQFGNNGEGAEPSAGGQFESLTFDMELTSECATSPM

[5] = biological target: Cytochrome P450 3A4 (Homo sapiens, UniProt P08684); settings: Potency;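 note: confirmatory qHTS run detecting inhibitors and substrates of CYP3A4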
Chain of Cytochrome P450 3A4 (P08684 whole entry, the tested form may be a part): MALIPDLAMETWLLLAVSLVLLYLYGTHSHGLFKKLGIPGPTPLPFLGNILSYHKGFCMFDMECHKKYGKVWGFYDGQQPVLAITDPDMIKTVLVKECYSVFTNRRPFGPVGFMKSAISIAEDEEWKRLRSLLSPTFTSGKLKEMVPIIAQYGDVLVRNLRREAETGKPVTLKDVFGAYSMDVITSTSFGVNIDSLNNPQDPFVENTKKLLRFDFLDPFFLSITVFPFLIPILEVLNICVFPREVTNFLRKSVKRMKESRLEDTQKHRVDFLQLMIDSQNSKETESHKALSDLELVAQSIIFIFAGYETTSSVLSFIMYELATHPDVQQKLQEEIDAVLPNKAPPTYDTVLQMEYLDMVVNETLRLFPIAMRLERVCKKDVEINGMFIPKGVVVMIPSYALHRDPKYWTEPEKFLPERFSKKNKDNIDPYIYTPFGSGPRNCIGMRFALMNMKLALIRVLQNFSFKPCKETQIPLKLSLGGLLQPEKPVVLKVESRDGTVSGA

[6] = luciferase reporter signal reduction – luminescence, H4-C neuroglioblastoma cells, dose response (AID 2458); type: functional, cell-based;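 note: H4 neuroglioblastoma cells stably carrying a luciferase reporter gene fusion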
[7] = alpha-synuclein stem-loop luciferase translation blockers – H4 neuroglioma cells, luminescence, confirmation (AID 1988); type: functional, cell-based
[8] = Luminescence Cell-Based Dose Response HTS to Identify Inhibitors of 5'UTR Stem-Loop Driven Prion Protein mRNA Translation in H4 Neuroglioblastoma Cells. [Related pubchem assays: 1827 (Project Summary), 1813 (Primary HTS)]; type: functional
[9] = alpha-synuclein stem-loop translation blockers – luminescence, H4 neuroglioblastoma cells, dose confirmation, confirmation (AID 2454); type: functional, cell-based;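 note: H4 neuroglioblastoma cells carrying an alpha-synuclein 5'UTR luciferase reporter; potency for inhibition of the luciferase signal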
[10] = luciferase reporter signal suppression in cells – H4 neuroglioma cells, luminescence, dose response (AID 1990); type: functional, cell-based
[11] = cells; type: functional, cell-based
[12] = biological target: Photoreceptor-specific nuclear receptor (Homo sapiens, UniProt Q9Y5X4); type: functional, cell-based;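 note: CHO-S cells with Gal4-NCOR and VP16-NR2E3 two-hybrid luciferase reporter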
[13] = biological target: Vasopressin V1a receptor (Homo sapiens, UniProt P37288); test: Counterscreen for Oxytocin Receptor (OXTR) agonists: Fluorescence-based cell-based high throughput dose response assay to identify agonists of the vasopressin 1 receptor (V1R). [Related pubchem assays: 2435 (Primary screen (OXTR agonists in singlicate)), 434991 (Counterscreen (V1R agonists in triplicate)), 2482 (Summary (OXTR agonists)) …; type: functional
Chain of Vasopressin V1a receptor (P37288 whole entry): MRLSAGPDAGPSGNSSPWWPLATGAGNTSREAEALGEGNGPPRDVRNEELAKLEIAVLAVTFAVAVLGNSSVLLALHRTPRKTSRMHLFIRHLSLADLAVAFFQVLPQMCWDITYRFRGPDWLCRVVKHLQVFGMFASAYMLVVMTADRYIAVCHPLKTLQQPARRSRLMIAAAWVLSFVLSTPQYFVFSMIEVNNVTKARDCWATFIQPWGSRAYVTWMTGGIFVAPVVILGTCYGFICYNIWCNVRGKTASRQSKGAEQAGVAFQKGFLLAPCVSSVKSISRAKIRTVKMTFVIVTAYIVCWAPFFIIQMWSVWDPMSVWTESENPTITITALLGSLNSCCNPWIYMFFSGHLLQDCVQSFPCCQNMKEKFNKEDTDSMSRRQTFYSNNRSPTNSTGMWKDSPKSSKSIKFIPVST

[14] = biological target: Oxytocin receptor (Homo sapiens, UniProt P30559); test: Fluorescence-based cell-based high throughput dose response assay for agonists of the Oxytocin Receptor (OXTR). [Related pubchem assays: 2435 (Primary screen (OXTR agonists in singlicate)), 434991 (Counterscreen (V1R agonists in triplicate)), 2482 (Summary (OXTR agonists)), 434963 (Confirmation screen (OXTR agonists in triplicate))]; type: functional
Chain of Oxytocin receptor (P30559 whole entry, the tested form may be a part): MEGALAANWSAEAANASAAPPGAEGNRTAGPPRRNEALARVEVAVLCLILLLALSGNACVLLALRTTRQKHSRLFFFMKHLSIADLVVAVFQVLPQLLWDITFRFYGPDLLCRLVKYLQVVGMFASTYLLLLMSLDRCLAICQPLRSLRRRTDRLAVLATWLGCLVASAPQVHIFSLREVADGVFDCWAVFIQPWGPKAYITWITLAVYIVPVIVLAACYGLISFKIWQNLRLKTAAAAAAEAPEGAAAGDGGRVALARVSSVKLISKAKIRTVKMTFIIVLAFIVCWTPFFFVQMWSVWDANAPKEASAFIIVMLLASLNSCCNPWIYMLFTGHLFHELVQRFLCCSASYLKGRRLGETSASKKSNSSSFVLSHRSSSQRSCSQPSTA

[15] = biological target: NACHT, LRR and PYD domains-containing protein 3 (Homo sapiens, UniProt Q96P20); test: NALP3 inhibitors in yeast, dose response, luminescent (AID 488799); type: functional
[16] = biological target: Bcl-2-like protein 10 (Homo sapiens, UniProt Q9HD36); test: Bcl-B/TR3 peptide binding disruption – biochemical, fluorescence polarization, FITC-TR3 peptide, selectivity assay for Bfl-1 inhibitor project, primary screen (AID 748);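 note: fluorescence polarization from a fluorescein-labelled TR3 peptide binding purified Bcl-B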
Chain of Bcl-2-like protein 10 (Q9HD36 whole entry): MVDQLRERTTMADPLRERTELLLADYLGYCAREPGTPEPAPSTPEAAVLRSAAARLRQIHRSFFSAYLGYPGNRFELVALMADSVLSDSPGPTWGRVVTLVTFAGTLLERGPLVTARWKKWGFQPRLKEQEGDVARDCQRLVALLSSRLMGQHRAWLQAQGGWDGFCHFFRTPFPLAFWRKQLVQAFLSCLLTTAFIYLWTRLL

[17] = biological target: T1, Heat shock factor protein 1 (Mus musculus, UniProt P38532); test: decrease of HSF1-responsive luciferase luminescence – cell-based, NIH3T3, dose retest, confirmation (AID 2382); type: functional;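 note: NIH3T3 fibroblasts with HSF1-driven luciferase reporter stressed by proteasome inhibitor MG132; luminescence from HSF1-driven luciferase expression after 8 hours of MG132 stress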
T1 sequence (P38532 whole entry): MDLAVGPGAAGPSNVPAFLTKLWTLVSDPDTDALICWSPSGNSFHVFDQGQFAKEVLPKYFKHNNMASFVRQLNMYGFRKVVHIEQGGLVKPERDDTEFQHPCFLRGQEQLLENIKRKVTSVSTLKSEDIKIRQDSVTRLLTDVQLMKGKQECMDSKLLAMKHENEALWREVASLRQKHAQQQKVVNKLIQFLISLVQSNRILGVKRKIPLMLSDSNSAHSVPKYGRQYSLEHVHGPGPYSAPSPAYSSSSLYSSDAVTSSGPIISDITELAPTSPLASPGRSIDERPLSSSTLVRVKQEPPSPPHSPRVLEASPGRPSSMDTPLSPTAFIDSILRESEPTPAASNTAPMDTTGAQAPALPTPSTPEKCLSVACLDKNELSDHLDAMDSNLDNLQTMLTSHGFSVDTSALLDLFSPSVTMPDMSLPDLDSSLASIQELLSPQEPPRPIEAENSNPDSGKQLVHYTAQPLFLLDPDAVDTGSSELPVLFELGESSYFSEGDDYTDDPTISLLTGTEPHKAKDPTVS

[18] = biological target: Eukaryotic translation initiation factor 4H (Homo sapiens, UniProt Q15056); test: eIF4H binding inhibition – biochemical, uHTS, fluorescence polarization, translation initiation inhibitor project, primary screen (AID 2012)
[19] = biological target: Polyadenylate-binding protein 1 (Homo sapiens, UniProt P11940); test: blockers of PABP interaction with poly(A) – biochemical, fluorescence polarization, […] (AID 2014)
Chain of Polyadenylate-binding protein 1 (P11940 whole entry): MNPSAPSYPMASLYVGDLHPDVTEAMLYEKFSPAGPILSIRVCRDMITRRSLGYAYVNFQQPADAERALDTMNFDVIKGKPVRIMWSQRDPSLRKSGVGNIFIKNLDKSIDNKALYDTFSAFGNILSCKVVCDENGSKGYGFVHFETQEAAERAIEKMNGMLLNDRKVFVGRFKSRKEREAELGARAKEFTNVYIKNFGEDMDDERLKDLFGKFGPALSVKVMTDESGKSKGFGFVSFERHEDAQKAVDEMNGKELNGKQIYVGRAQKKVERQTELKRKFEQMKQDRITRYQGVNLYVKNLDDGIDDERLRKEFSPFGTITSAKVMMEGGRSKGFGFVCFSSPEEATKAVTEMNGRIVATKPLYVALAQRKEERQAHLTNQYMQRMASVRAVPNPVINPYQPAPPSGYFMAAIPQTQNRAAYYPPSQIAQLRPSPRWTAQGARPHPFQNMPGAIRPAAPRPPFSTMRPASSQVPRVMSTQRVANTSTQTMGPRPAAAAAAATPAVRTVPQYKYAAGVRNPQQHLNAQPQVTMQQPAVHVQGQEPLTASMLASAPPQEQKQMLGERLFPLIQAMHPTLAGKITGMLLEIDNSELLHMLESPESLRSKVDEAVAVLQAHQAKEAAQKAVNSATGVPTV

[20] = biological target: T2, Intestinal-type alkaline phosphatase (Homo sapiens, UniProt P09923); test: human intestinal alkaline phosphatase activators, dose response, biochemical, luminescence, uHTS hits (AID 463120); type: functional
T2 sequence (P09923 whole entry): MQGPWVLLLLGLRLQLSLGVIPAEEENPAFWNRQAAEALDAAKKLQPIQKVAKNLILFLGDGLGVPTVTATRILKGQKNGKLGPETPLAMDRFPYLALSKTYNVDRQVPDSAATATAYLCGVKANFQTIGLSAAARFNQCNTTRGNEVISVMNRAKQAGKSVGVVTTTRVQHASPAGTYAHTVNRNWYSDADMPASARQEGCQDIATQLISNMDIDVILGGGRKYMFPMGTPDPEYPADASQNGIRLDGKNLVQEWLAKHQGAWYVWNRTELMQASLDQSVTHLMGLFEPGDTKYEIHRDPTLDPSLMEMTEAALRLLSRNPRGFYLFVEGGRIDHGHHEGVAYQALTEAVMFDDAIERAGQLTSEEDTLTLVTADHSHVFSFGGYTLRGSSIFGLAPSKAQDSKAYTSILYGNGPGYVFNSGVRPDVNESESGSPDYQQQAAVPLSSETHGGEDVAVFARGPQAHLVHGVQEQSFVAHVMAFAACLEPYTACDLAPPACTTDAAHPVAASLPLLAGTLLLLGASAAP

[21] = biological target: T2, Intestinal-type alkaline phosphatase; test: activation of human intestinal alkaline phosphatase – biochemical, luminescent, uHTS hits, set 2, dose response (AID 488817); type: functional;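 note: potency of activators that raise enzyme activity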
[22] = biological target: T3, Alkaline phosphatase, tissue-nonspecific isozyme (Homo sapiens, UniProt P05186); test: activation of tissue-nonspecific alkaline phosphatase – biochemical, TNAP isozyme, human IAP uHTS hits, selectivity assay for human IAP activator project, dose response (AID 488886); type: functional;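 note: potency of compounds raising TNAP activity as a selectivity check on IAP activators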
T3 sequence (P05186 whole entry): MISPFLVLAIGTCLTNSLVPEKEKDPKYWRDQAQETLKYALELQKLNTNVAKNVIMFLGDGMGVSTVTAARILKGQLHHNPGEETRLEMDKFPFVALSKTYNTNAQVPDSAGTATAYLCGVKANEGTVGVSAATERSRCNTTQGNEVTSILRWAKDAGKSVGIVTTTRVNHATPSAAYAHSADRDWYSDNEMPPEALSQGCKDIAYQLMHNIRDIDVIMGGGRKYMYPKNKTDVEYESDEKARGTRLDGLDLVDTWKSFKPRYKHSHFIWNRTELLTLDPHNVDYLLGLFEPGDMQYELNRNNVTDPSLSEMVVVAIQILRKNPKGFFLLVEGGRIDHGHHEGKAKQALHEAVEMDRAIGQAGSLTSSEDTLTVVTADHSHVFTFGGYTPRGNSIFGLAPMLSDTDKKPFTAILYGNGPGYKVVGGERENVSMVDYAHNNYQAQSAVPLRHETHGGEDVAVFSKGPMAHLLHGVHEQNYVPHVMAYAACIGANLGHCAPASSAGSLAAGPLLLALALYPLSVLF

[23] = biological target: Intestinal-type alkaline phosphatase (Mus musculus, UniProt P24822); test: PubChem AID 488874; type: functional
Chain of Intestinal-type alkaline phosphatase (Mus musculus, UniProt P24822) (P24822 whole entry): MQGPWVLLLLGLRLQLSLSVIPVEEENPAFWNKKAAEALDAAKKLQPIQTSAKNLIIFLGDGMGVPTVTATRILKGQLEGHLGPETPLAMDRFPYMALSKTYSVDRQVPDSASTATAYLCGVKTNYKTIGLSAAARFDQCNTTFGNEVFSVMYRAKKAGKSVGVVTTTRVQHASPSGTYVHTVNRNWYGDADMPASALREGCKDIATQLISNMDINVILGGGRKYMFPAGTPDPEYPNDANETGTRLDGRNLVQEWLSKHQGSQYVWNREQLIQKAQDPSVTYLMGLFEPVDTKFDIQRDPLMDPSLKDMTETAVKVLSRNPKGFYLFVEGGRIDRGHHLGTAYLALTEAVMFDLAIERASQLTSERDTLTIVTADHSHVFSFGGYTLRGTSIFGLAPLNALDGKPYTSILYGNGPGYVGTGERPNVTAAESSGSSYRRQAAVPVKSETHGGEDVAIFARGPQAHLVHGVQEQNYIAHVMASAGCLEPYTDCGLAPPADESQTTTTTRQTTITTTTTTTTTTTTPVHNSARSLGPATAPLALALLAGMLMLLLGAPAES

[24] = biological target: Lysosomal acid glucosylceramidase (Homo sapiens, UniProt P04062); test: Dose response cell-based high throughput screening assay to identify enhancers of beta-glucosidase activity. [Related pubchem assays: 784 ]; type: functional
[25] = loss of viability in HepG2 cells – cell-based, CellTiter-Glo, cherry-picked, cytotoxicity control for Shn3 inhibitor project, dose response (AID 624134); type: functional
[26] = Shn3 3'UTR reporter signal decrease – cell-based, Clone20 osteoblasts, firefly luciferase, cherry-pick, set 2, Schnurri-3 inhibitor project, dose response (AID 720490); type: functional;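 note: actives lower the luminescence signal as inhibitors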
[27] = biological target: T4, Protein skinhead-1 (Caenorhabditis elegans, UniProt P34707); type: functional
T4 sequence (P34707 whole entry): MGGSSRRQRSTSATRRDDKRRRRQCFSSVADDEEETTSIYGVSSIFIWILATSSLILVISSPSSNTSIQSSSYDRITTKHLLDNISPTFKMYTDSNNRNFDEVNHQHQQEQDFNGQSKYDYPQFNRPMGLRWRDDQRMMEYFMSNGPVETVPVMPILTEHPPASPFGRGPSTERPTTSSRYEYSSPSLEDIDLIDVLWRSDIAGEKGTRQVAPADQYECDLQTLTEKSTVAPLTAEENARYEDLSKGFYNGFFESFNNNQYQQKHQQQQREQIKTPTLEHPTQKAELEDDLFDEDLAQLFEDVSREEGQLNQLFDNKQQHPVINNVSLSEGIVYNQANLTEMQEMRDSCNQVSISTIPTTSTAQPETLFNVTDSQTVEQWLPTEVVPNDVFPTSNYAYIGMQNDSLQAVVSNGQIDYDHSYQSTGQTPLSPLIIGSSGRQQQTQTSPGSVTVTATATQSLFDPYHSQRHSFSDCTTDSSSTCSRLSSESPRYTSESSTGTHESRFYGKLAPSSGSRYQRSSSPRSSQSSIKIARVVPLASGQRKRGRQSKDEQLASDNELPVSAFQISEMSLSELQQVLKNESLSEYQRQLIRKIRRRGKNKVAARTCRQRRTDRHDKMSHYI

[28] = HEK-293T viability loss after treatment – luminescence, T-cell screen hits, cytotoxicity control for TCR NF-kB inhibitor project, dose response (AID 489026); type: functional, cell-based;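 note: cells exposed to compound about 14 hours before the viability readout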
[29] = reduction of Shn3 3'UTR-driven luciferase in osteoblasts – cell-based, Clone20 osteoblasts, firefly luciferase, cherry-picked, dose response (AID 624132); type: functional;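 note: firefly luciferase luminescence from reporter carrying the Shn3 3'UTR in osteoblasts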
[30] = Luminescence-based counterscreen assay for KLF5 inhibitors: dose response cell-based high throughput screening assay to identify cytotoxic compounds using the IEC-6 intestinal epithelial cell line. [Related pubchem assays: 1700 (Primary screen.), 1834 (Confirmation screen.), 1858 (Summary AID.), 1905 (Counterscreen.)]; type: functional
[31] = Luminescence Cell-Based Dose Response HTS to Identify Activators of Luciferase Translation or Activity in H4-C Neuroglioblastoma Cells. [Related pubchem assays: 1829 (Project Summary), 1814 (Primary HTS)]; type: functional
[32] = Luminescence Cell-Based Dose Response HTS to Identify Activators of Luciferase Translation or Activity in H4 […] Cells. [Related pubchem assays: 1829 (Project Summary), 1814 (Primary HTS)]; type: functional
[33] = Luminescence Cell-Based Dose Retest to Confirm Activators of 5'UTR Stem-Loop Driven Alpha-Synuclein mRNA Translation in H4 Neuroglioblastoma Cells. [Related pubchem assays (depositor defined):AID1813, AID1829]; type: functional
[34] = Luminescence Cell-Based Dose Confirmation HTS to Identify Activators of 5'UTR Stem-Loop Driven Alpha-Synuclein mRNA Translation in H4 Neuroglioblastoma Cells. [Related pubchem assays: 1829 (Project Summary), 1814 (Primary HTS)]; type: functional
[35] = Luminescence Cell-Based Dose Response HTS to Identify Activators of 5'UTR Stem-Loop Driven Prion Protein mRNA Translation in H4-C Neuroglioblastoma Cells. [Related pubchem assays: 1829 (Project Summary), 1814 (Primary HTS)]; type: functional
[36] = test system: H4; test: Luminescence Cell-Based Dose Response HTS to Identify Activators of 5'UTR Stem-Loop Driven Prion Protein mRNA Translation in H4 Neuroglioblastoma Cells. [Related pubchem assays: 1829 (Project Summary), 1814 (Primary HTS)]; type: functional; settings: Homo sapiens

SMILES: Fc1ccc(Nc2c(-c3ccco3)nc3ccccn23)cc1
- EC50 [1]: 10.6 µM (not active)
- EC50 [2]: 6.46 µM (active)
- EC50 [3]: 17.9 µM (not active)

SMILES: COc1ccccc1NC(=O)c1cc(-c2ccccc2)on1
- EC50 [4]: 9.62 µM (active)

SMILES: CN1C[C@@H]2C(c3ccccc3)C3(c4ccccc4)CC2(C3)[C@H]1c1ccccc1 (stereo partly specified)
- AC50 [5]: 5.01 µM (inconclusive)

SMILES: CCC(C)(C)c1ccc(Oc2ccc(N)cc2)cc1
- EC50 [6]: 0.216 µM (active)
- EC50 [7]: < 0.1 µM (active)
- EC50 [8]: 0.432 µM (active)
- EC50 [9]: 0.476 µM (active)
- EC50 [10]: < 0.1 µM (active)
- EC50 [11]: 0.482 µM (active)

SMILES: Cc1ccccc1Cn1nnc(C(=O)Nc2cccc(C)c2C)c1N
- IC50 [12]: 39.8 µM (inactive)
- EC50 [13]: > 29.9 µM (not active)
- EC50 [14]: > 29.9 µM (not active)

SMILES: CCCCCC(=O)N1CCN(CC/N=C/C2=C(O)CC(c3ccco3)CC2=O)CC1 (stereo unspecified)
- IC50 [15]: 7.3 µM (active)

SMILES: COc1ccc(OC)c(NC(=O)CCN2CCC(C)CC2)c1
- IC50 [16]: > 100 µM (inactive)

SMILES: COc1ccccc1/N=C1/SCCCN1C
- EC50 [17]: > 195 µM (not active)
- IC50 [18]: > 100 µM (inactive)
- IC50 [19]: 3.57 µM (active)

SMILES: COc1ccccc1C1=NN(C2=NN=C(N)Cc3ncnn32)C(O)(C(F)(F)F)C1 (stereo unspecified)
- EC50 [20]: 7.06 µM (active)
- EC50 [21]: 9.66 µM (active)
- EC50 [22]: 11.7 µM (active)
- IC50 [23]: 42.2 µM (active)

SMILES: CCOC(=O)COc1ccc(-c2nnc(-c3ccccc3)o2)cc1
- EC50 [24]: > 10 µM (not active)

SMILES: c1ccc(-c2noc(-c3ccc4ccccc4c3)n2)nc1
- AC50 [25]: 27.6 µM (active)
- AC50 [26]: 5.85 µM (active)
- IC50 [27]: > 100 µM (inactive)
- IC50 [28]: > 80 µM (inactive)
- AC50 [29]: 1.98 µM (active)
- IC50 [30]: 31.9 µM (not active)

SMILES: O=C1CCCCCN1Cc1nnc(SCc2nc3ccccc3s2)n1-c1ccccn1
- EC50 [31]: 0.207 µM (active)
- EC50 [32]: 25 µM (active)
- EC50 [33]: > 195 µM (inactive)
- EC50 [34]: 1.08 µM (active)
- EC50 [35]: 1.89 µM (active)
- EC50 [36]: 80.9 µM (inconclusive)
